The structures appear in SMILES notation.

For this assay, the target named is T1, CBL-B (Homo sapiens, UniProt Q13191).
T1 construct: GST
T1 sequence (Q13191 whole entry): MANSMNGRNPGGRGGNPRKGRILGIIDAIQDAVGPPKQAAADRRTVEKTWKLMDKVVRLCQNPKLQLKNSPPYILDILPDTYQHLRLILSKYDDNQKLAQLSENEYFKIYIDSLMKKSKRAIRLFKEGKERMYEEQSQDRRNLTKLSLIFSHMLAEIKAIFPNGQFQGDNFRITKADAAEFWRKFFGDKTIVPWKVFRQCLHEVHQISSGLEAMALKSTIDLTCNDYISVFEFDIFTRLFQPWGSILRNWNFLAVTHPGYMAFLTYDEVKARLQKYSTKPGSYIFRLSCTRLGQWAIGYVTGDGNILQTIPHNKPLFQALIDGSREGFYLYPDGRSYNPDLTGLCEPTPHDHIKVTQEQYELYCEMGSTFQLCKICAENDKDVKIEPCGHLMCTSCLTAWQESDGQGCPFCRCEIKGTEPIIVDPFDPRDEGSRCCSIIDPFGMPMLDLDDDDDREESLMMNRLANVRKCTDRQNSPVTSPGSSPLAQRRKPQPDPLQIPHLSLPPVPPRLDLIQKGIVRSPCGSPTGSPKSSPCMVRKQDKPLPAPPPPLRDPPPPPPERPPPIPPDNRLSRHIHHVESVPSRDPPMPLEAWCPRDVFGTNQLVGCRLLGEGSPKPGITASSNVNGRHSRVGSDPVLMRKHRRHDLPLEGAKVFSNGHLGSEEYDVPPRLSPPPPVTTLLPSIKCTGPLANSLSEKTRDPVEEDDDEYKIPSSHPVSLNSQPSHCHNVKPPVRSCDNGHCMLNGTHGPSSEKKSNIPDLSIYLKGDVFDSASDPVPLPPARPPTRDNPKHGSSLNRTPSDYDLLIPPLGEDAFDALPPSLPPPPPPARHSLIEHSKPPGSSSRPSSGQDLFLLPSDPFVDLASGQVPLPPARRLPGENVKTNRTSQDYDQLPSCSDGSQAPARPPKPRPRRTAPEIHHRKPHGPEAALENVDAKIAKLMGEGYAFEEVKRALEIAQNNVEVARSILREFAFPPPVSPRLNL
Description: CBL-B TR-FRET IC50 screening (E1/E2 ubiquitination, Biotin-Ubiquitin, Anti GST-Tb donor / Streptavidin-d2 acceptor). The assay is classed as biochemical. To be noted: second part of Table 2 (head 'Patent Cmpd No / Updated Activity'); same CBL-B TR-FRET IC50 bins A-F; read-out: Updated Activity. Background: Time-resolved FRET reads energy transfer from a long-lived donor to a nearby acceptor.
Consider `Cn1cnnc1[C@@H](c1cccc(-n2cc3c(C(F)(F)F)cc(CN4NC(=O)CC45COC5)cn3c2=O)c1)C1CCC1` [Compound 561], for which the IC50 is under 100 nM. Then `CN1CCCN(Cc2cc(C(F)(F)F)c3cn(-c4cccc([C@H](c5nncn5C)C5CCC5)c4)c(=O)n3c2)S1(=O)=O` [Compound 562], with under 100 nM. As to `C[C@H]1CCC[N+]([O-])(Cc2cc(C(F)(F)F)c3cn(-c4cccc([C@H](c5nncn5C)C5CCC5)c4)c(=O)n3c2)C1` (stereo partly shown) [Compound 563], the IC50 is under 100 nM. Then `Cn1cnnc1[C@@H](c1cccc(-n2cc3c(C(F)(F)F)cc(CN4CC(C)(C#N)C4)cn3c2=O)c1)C1CCC1` [Compound 564], with under 100 nM; and `[2H]C([2H])(c1cc(C(F)(F)F)c2cn(-c3cccc([C@@H](c4nncn4C)C4COC4)c3)c(=O)n2c1)N1CCC[C@H](C)C1` [Compound 565_P1], with over 10000 nM; and `C[C@H]1CCN1Cc1cc(C(F)(F)F)c2cn(-c3cccc([C@H](c4nncn4C)C4CCC4)c3)c(=O)n2c1` [Compound 565_P2], with under 100 nM. Regarding `C[C@H]1CCCN(Cc2cc(C(F)(F)F)c3cn(-c4cccc([C@@H](c5n[nH]cc5C#N)C5CCC5)c4)c(=O)n3c2)C1` [Compound 566], the IC50 is over 10000 nM.

As for `C[C@H]1CCCN(Cc2cc(C(F)(F)F)c3cn(-c4cccc([C@H](c5n[nH]cc5C#N)C5CCC5)c4)c(=O)n3c2)C1` [Compound 567], the IC50 is under 100 nM. Then `Cn1cnnc1[C@@H](c1cccc(-n2cc3c(C(F)(F)F)cc(CN4CCC[C@](C)(O)C4)cn3c2=O)c1)C1CCC1` [Compound 568], with under 100 nM; and `Cn1cnnc1[C@@H](c1cccc(-n2cc3c(C(F)(F)F)cc(CN4CCN(S(C)(=O)=O)CC4)cn3c2=O)c1)C1CCC1` [Compound 572], with under 100 nM. For `CCS(=O)(=O)N(C)Cc1cc(C(F)(F)F)c2cn(-c3cccc([C@H](c4nncn4C)C4CCC4)c3)c(=O)n2c1` [Compound 590], the IC50 was under 100 nM.

On to `CCN(Cc1cc(C(F)(F)F)c2cn(-c3cccc([C@H](c4nncn4C)C4CCC4)c3)c(=O)n2c1)S(C)(=O)=O` [Compound 591], for which the IC50 was under 100 nM. On to `CCN(Cc1cc(C(F)(F)F)c2cn(-c3cccc([C@H](c4nncn4C)C4CCC4)c3)c(=O)n2c1)S(=O)(=O)CC` [Compound 592], for which the IC50 was under 100 nM. Then `COCCN(Cc1cc(C(F)(F)F)c2cn(-c3cccc([C@H](c4nncn4C)C4CCC4)c3)c(=O)n2c1)S(C)(=O)=O` [Compound 593], with under 100 nM; and `COCCS(=O)(=O)N(C)Cc1cc(C(F)(F)F)c2cn(-c3cccc([C@H](c4nncn4C)C4CCC4)c3)c(=O)n2c1` [Compound 594], with under 100 nM. Then `CN(CCC(=O)O)Cc1cc(C(F)(F)F)c2cn(-c3cccc([C@H](c4nncn4C)C4CCC4)c3)c(=O)n2c1` [Compound 595], with under 100 nM. With `COC(=O)CCN(C)Cc1cc(C(F)(F)F)c2cn(-c3cccc([C@H](c4nncn4C)C4CCC4)c3)c(=O)n2c1` [Compound 596] the figure was under 100 nM; with `[2H]C([2H])(c1cc(C(F)(F)F)c2cn(-c3cccc([C@H](c4nncn4C)C4CCC4)c3)c(=O)n2c1)N1CCC[C@H](C(F)(F)F)C1` [Compound 597_P1], 3000 to 10000 nM; with `[2H]C([2H])(c1cc(C(F)(F)F)c2cn(-c3cccc([C@H](c4nncn4C)C4CCC4)c3)c(=O)n2c1)N1CCC[C@@H](C(F)(F)F)C1` [Compound 597_P2], under 100 nM.

Take `CN1CCN(Cc2cc(C(F)(F)F)c3cn(-c4cccc([C@H](c5nncn5C)C5CCC5)c4)c(=O)n3c2)S1(=O)=O` [Compound 608]: the IC50 is under 100 nM. Then `Cn1cnnc1[C@@H](c1cccc(-n2cc3c(C(F)(F)F)cc(CN4CCC5(CCNC5=O)CC4)cn3c2=O)c1)C1CCC1` [Compound 609], with under 100 nM; and `C[C@H](c1cc(C(F)(F)F)c2cn(-c3cccc([C@H](c4nncn4C)C4CCC4)c3)c(=O)n2c1)N(C)Cc1cncs1` [Compound 610_P1], with under 100 nM; and `C[C@@H](c1cc(C(F)(F)F)c2cn(-c3cccc([C@H](c4nncn4C)C4CCC4)c3)c(=O)n2c1)N(C)Cc1cncs1` [Compound 610_P2], with under 100 nM. As to `COCCn1ccnc1-c1cc(C(F)(F)F)c2cn(-c3cccc(C4(c5nncn5C)CCC4)c3)c(=O)n2c1` [Compound 611], the IC50 lay in the range of 100 to 300 nM. With `C[C@@H]1CN(Cc2cc(C(F)(F)F)c3cn(-c4cccc([C@@H](c5nncn5C)C5CC5)c4)c(=O)n3c2)CCO1` [Compound 612_P1] the figure was over 10000 nM. With `C[C@@H]1CN(Cc2cc(C(F)(F)F)c3cn(-c4cccc([C@H](c5nncn5C)C5CC5)c4)c(=O)n3c2)CCO1` [Compound 612_P2] the figure was under 100 nM; with `CN1CCC2(CN(Cc3cc(C(F)(F)F)c4cn(-c5cccc([C@H](c6nncn6C)C6CCC6)c5)c(=O)n4c3)C2)C1=O` [Compound 622], under 100 nM; with `C[C@H]1CCCN(Cc2cc(C(F)(F)F)c3cn(-c4cccc(C5(c6nncs6)CC(C)(C)C5)c4)c(=O)n3c2)C1` [Compound 624], 301 to 1000 nM.

`Cn1cnnc1[C@@H](c1cccc(-n2cc3c(C(F)(F)F)cc(CN4CCCC(n5cnnc5)C4)cn3c2=O)c1)C1CCC1` (stereo partly shown) [Compound 625]: the IC50 is under 100 nM. With `C[C@H]1CCCN(Cc2cc(C(F)(F)F)c3cn(-c4cccc(C5(c6nncs6)CCC5)c4)c(=O)n3c2)C1` [Compound 626] the figure was under 100 nM. Regarding `C[C@H]1CCCN(Cc2cc(C(F)(F)F)c3cn(-c4cc([C@@H](c5nncn5C)C5CCC5)ccn4)c(=O)n3c2)C1` [Compound 627_P1], the IC50 was under 100 nM. With `C[C@H]1CCCN(Cc2cc(C(F)(F)F)c3cn(-c4cc([C@H](c5nncn5C)C5CCC5)ccn4)c(=O)n3c2)C1` [Compound 627_P2] the figure was 1000 to 3000 nM. Then `C[C@H]1CCCN(Cc2cc(C(F)(F)F)c3cn(-c4cncc([C@@H](c5nncn5C)C5CCC5)c4)c(=O)n3c2)C1` [Compound 628_P1], with under 100 nM; and `C[C@H]1CCCN(Cc2cc(C(F)(F)F)c3cn(-c4cncc([C@H](c5nncn5C)C5CCC5)c4)c(=O)n3c2)C1` [Compound 628_P2], with 3000 to 10000 nM.

These data come from US20240228482A1, “COMPOUNDS, COMPOSITIONS AND METHODS OF TREATING CANCER” (HOTSPOT THERAPEUTICS, INC., priority 2021, published 2024).
